The results in this text go back to patent publication US10626125B2, “1,1,1-trifluoro-3-hydroxypropan-2-yl carbamate derivatives as MAGL inhibitors” (PFIZER INC., priority 2017, dated 2020).

Where two headings read alike, the source gives them in different places.

Experiment [1] addresses T1, human recombinant Monoacylglycerol Lipase (Homo sapiens, UniProt Q99685).
T1 sequence (Q99685 1-303): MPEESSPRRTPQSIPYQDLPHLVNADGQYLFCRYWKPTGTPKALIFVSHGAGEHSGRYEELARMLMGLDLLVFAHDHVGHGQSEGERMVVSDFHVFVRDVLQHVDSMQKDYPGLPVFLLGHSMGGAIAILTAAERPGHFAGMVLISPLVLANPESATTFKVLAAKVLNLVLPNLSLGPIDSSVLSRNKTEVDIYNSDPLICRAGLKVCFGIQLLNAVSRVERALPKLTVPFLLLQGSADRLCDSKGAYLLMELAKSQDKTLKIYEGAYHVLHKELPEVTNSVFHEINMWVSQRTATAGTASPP
Description: MAGL enzymatic assay (IC50; 7-HCA substrate added at T=0 min or T=30 min). As to conditions: geometric mean of 2-5 determinations unless otherwise indicated. The format is biochemical.

Experiment [2] deals with T1, human recombinant Monoacylglycerol Lipase. The experiment in a line: MAGL inactivation (kinact/KI from enzyme progress curves, T=0 min protocol). As to conditions: from plot of Kobs vs. compound concentration, geometric mean of 2-5 determinations (b: ≥6).
[3] abbreviates: MAGL (T = 30 min) IC50, substrate 7-HCA added after 30 minute incubation (T=30 min).
[4] abbreviates: substrate 7-HCA added immediately (T=0 min), read-out: MAGL (T = 0 min) IC50.

The IC50 is the midpoint of a concentration-inhibition curve. Take `O=C(O[C@H](CO)C(F)(F)F)N1CCC2(CC1)CC(c1ccccn1)C2` [Example 81, (2R)-1,1,1-trifluoro-3-hydroxypropan-2-yl 2-(pyridin-2-yl)-7-azaspiro[3.5]nonane-7-carboxylate]: the IC50 came to 4 nM in experiment [1] (setting [3]) and 45 nM in experiment [1] (setting [4]). In experiment [2], the “MAGL kinact/KI” value is given as 20400 1/s per M.

Turning to `O=C(O[C@H](CO)C(F)(F)F)N1CCC2(CC1)CC(c1ccc(C(F)F)nc1)CO2` (single isomer, unassigned) [Example 36], the IC50 in experiment [1] (setting [3]) is 27 nM; in experiment [1] (setting [4]) it was 239 nM. Moreover, in experiment [2], the “MAGL kinact/KI” value is recorded as 1440 1/s per M.

Regarding `O=C(O[C@H](CO)C(F)(F)F)N1CCC2(CC1)CC(n1cc(C3CC3)cn1)C2` [Example 49, (2R)-1,1,1-trifluoro-3-hydroxypropan-2-yl 2-(4-cyclopropyl-1H-pyrazol-1-yl)-7-azaspiro[3.5]nonane-7-carboxylate], the IC50 in experiment [1] (setting [3]) was 1 nM; in experiment [1] (setting [4]), 13 nM. The “MAGL kinact/KI” value in experiment [2] is 77400 1/s per M.

Turning to `N#Cc1ccc([C@H]2COC3(CCN(C(=O)O[C@H](CO)C(F)(F)F)CC3)C2)cc1F` [Example 27, (2R)-1,1,1-trifluoro-3-hydroxypropan-2-yl (3S)-3-(4-cyano-3-fluorophenyl)-1-oxa-8-azaspiro[4.5]decane-8-carboxylate], the IC50 in experiment [1] (setting [3]) is 3 nM; in experiment [1] (setting [4]), 17 nM. The “MAGL kinact/KI” value in experiment [2] was 22800 1/s per M.

Turning to `O=C(O[C@H](CO)C(F)(F)F)N1CCC2(CC1)CC(Oc1ccccc1)C2` [Example 63, (2R)-1,1,1-trifluoro-3-hydroxypropan-2-yl 2-phenoxy-7-azaspiro[3.5]nonane-7-carboxylate], the IC50 in experiment [1] (setting [3]) turned out to be 1 nM; in experiment [1] (setting [4]), 11 nM. Also, the “MAGL kinact/KI” value in experiment [2] is on record as 34100 1/s per M.

Take `N#Cc1cccc(OC2CC3(CCN(C(=O)O[C@H](CO)C(F)(F)F)CC3)C2)c1` [Example 86, (2R)-1,1,1-trifluoro-3-hydroxypropan-2-yl 2-(3-cyanophenoxy)-7-azaspiro[3.5]nonane-7-carboxylate]: the half-inhibitory concentration (IC50) in experiment [1] (setting [3]) was 0.7 nM; in experiment [1] (setting [4]), 9 nM. For the same molecule, the “MAGL kinact/KI” value in experiment [2] is 50100 1/s per M.

Take `O=C(O[C@H](CO)C(F)(F)F)N1CCC2(CC1)CC(Cn1cc(C(F)(F)F)cn1)CO2` (single isomer, unassigned) [Example 3]: the results for the 50% inhibitory concentration (IC50) in experiment [1] (setting [3]) and in experiment [1] (setting [4]) were 7 nM and 47 nM, respectively. In addition, the “MAGL kinact/KI” value in experiment [2] was 10300 1/s per M.

In the case of `O=C(O[C@H](CO)C(F)(F)F)N1CCC2(CC1)CC(n1cc(C(F)(F)F)cn1)CO2` (single isomer, unassigned) [Example 8], the values for the IC50 in experiment [1] (setting [3]) and in experiment [1] (setting [4]) were 16 nM and 172 nM, respectively. For the same molecule, in experiment [2], the “MAGL kinact/KI” value is on record as 2880 1/s per M.

As to `O=C(O[C@H](CO)C(F)(F)F)N1CCC2(CC1)CC(c1ccc(C(F)F)cn1)C2` [Example 48, (2R)-1,1,1-trifluoro-3-hydroxypropan-2-yl 2-[5-(difluoromethyl)pyridin-2-yl]-7-azaspiro[3.5]nonane-7-carboxylate], the IC50 in experiment [1] (setting [3]) was found to be 2 nM; in experiment [1] (setting [4]), 18 nM. Further, the “MAGL kinact/KI” value in experiment [2] was 26000 1/s per M.

On to `O=C(O[C@H](CO)C(F)(F)F)N1CCC2(CC1)CC(n1cc(C(F)(F)F)cn1)C2` [Example 1, (2R)-1,1,1-Trifluoro-3-hydroxypropan-2-yl 2-[4-(trifluoromethyl)-1H-pyrazol-1-yl]-7-azaspiro[3.5]nonane-7-carboxylate], for which the half-inhibitory concentration (IC50) in experiment [1] (setting [3]) was found to be 2 nM; in experiment [1] (setting [4]), 12 nM. In addition, the “MAGL kinact/KI” value in experiment [2] is reported as 22200 1/s per M.

As to `CN([C@H]1COC2(CCN(C(=O)O[C@H](CO)C(F)(F)F)CC2)C1)S(=O)(=O)CC1CC(F)(F)C1` [Example 57, (2R)-1,1,1-trifluoro-3-hydroxypropan-2-yl (3R)-3-[{[(3,3-difluorocyclobutyl)methyl]sulfonyl}(methyl)amino]-1-oxa-8-azaspiro[4.5]decane-8-carboxylate], the IC50 in experiment [1] (setting [3]) came to 13 nM; in experiment [1] (setting [4]), 113 nM. Also, the “MAGL kinact/KI” value in experiment [2] is 2770 1/s per M.
